Values quoted from earlier work in patent publication US6514941B1, “Method of preparing a casein hydrolysate enriched in anti-hypertensive peptides” (Campina Melkunie B.V., priority 1999, dated 2003).

System: SHRSP
Details: dose that is not hypotensive

C[C@H](CS)C(=O)N1CCC[C@H]1C(=O)O [captopril]
onset of stroke: inhibits the onset of stroke
